Measured values as given in PMC10649752, “Design and Synthesis of Novel Chalcone Derivatives: Anti-Breast Cancer Activity Evaluation and Docking Study” (International Journal of Molecular Sciences, 2023).
Entries after “also recorded” stand apart in the source; their conditions may differ.

What was measured:
Format in all cases: cell-based
MCF-7 cells [1] = assay: CCK-8 antiproliferative activity on MCF-7 cells
Method: (§1) DMEM high glucose medium and fetal calf serum were obtained from Gibco (New York, NY, USA), and cell counting Kit-8 solution was purchased from Meilunbio (Dalian, China). Paraformaldehyde and Crystal Violet were purchased from Biosharp (Hefei, China). The MCF-7 and L-02 cell lines were purchased from the Shanghai Institute of Biochemistry (Shanghai, China) All the target compounds and 5-fluorouracil (5-Fu) were dissolved with DMSO at a concentration of 20 mM. Cell culture medium was a mixture of DMEM medium, 10% fetal bovine serum, and 1% penicillin–streptomycin solution stored at […]. The cells were grown at 37 °C under 5% CO2.
(§2) Cells were seeded into 96 well plates with 4000 cells/well using DMEM solution and incubated in a humid atmosphere containing 5% CO2 at 37 °C for 24 h. Compounds with different concentrations (200 μM, 100 μM, 50 μM, 25 μM, 12.5 μM, 6.25 μM, 3.125 μM, 1.5625 μM) were added to the culture medium for 24 h. After that, CCK-8 reagent (10 μL) was added under dark conditions and incubated the plate in a CO2 incubator at 37 °C for 2 h. After incubation, the absorbance was measured using an enzyme-linked immunosorbent assay at a wavelength of 450 nm. Cell survival rate was calculated as a percentage of the control group.
(§3) By using Graph Pad Prism 8.0 software, the concentration that inhibits 50% of maximum cell proliferation was determined to be IC50 value.

[2] = tested on: human normal hepatocyte L-O2; assay: CCK-8 cytotoxicity against normal hepatocyte L-O2 cells; conditions: for IC50: human normal hepatocyte L-O2, CCK-8, 24 h
Method: We have selected compounds A7, A8, A9, and A14 with relatively low IC50 values, which are considered to have more potential and are more meaningful for further research. The toxic effects of compounds A7, A8, A9, and A14 on normal hepatocytes cells L-O2 were assessed in this work to examine the selective toxicity of the new compounds on cancer cells without harming normal cells. The selectivity index was calculated as a ratio of L-02 IC50/MCF-7 IC50 for these four compounds. […] Therefore, A8 and A14 were chosen as representative medications for future research after thorough evaluation.
as §1, §2, §3

MCF-7 cells [3] = assay: Migration ability assay (wound healing / scratch); conditions: various concentrations, 24 h and 48 h, vs control group
Method: An obvious feature of breast cancer cells is their strong migration ability. In order to study the inhibitory effect of compounds on breast cancer cells migration, the scratch distances of compounds A8 and A14 on MCF-7 cells at different concentrations were measured by wound healing experiments. […] Moreover, under similar concentrations, the inhibitory migration effect of the target compound on MCF-7 is more excellent than that of the control drug 5-Fu.
MCF-7 cells were seeded into six-well plates at a density of 3000 cells/well and growing for 24 h. Scratches were made in confluent monolayers with 200 μL pipette tip. After that, each well was washed with PBS buffer 3 times to remove non-adherent cell debris. MCF-7 cells were continually incubated with different concentrations of compounds or positive control for 24 or 48 h. The area of cells migrated across the wound was photographed using phase contrast microscopy at 0 h, 24 h, and 48 h. The migration distance of cells into the wound area was measured by ImageJ2 software at room temperature.

MCF-7 cells [4] = assay: Cell colony formation assay; conditions: 7 days treatment, drug concentrations greater than 8 µmol/L, vs blank control
Method: MCF-7 cells were seeded into six-well plates at a density of 1000 cells/well and cultivated for 24 h. After that, the cells were continually incubated with different concentrations of compounds and positive control for 7 days. Each well was carefully rinsed three times with PBS buffer quickly at room temperature. Collected cells were fixed for 1 h at room temperature by adding 2 mL of 4% paraformaldehyde solution. The results were analyzed using the ImageJ software.

| IC50 (MCF-7 cells [1]; Homo sapiens, MCF7, CCK-8, 24 h treatment) [µM] | IC50 (MCF-7 cells [1]; CCK-8, 24 h treatment) [µM] | Compound | IC50 [2] [µM] | Selectivity Index (SI) ([2]; ratio L-02 IC50/MCF-7 IC50) | Inhibition of MCF-7 cell migration (scratch distance) (MCF-7 cells [3]) | Colony formation of MCF-7 cells (MCF-7 cells [4]) |
| --- | --- | --- | --- | --- | --- | --- |
| 169 |  | O=c1[nH]cc(F)c(=O)[nH]1 [Compound 5-Fu, 5-fluorouracil, reference compound] | 200 | 1.18 |  |  |
|  | 19.1 | COc1cc(C(=O)/C=C/c2ccc(C(=O)NCc3cccs3)cc2)cc(OC)c1OC [Compound A7, (E)-4-(3-oxo-3-(3,4,5-trimethoxyphenyl)prop-1-en-1-yl)-N-(thiophen-2-ylmethyl) benzamide] |  |  |  |  |
|  | 19.6 | COc1cc(C(=O)/C=C/c2ccc(C(=O)NCC3CC3)cc2)cc(OC)c1OC [Compound A9, (E)-N-(cyclopropylmethyl)-4-(3-oxo-3-(3,4,5-trimethoxyphenyl)prop-1-en-1-yl) benzamide] | 35.3 |  |  |  |

Second part, the compound before the results:

| Compound | IC50 (MCF-7 cells [1]; Homo sapiens, MCF7, CCK-8, 24 h treatment) [µM] | IC50 (MCF-7 cells [1]; CCK-8, 24 h treatment) [µM] | IC50 [2] [µM] | Selectivity Index (SI) ([2]; ratio L-02 IC50/MCF-7 IC50) | Inhibition of MCF-7 cell migration (scratch distance) (MCF-7 cells [3]) | Colony formation of MCF-7 cells (MCF-7 cells [4]) |
| --- | --- | --- | --- | --- | --- | --- |
| COc1cc(C(=O)/C=C/c2ccc(C(=O)NCC3CCOC3)cc2)cc(OC)c1OC (stereo not drawn) [Compound A8, (E)-4-(3-oxo-3-(3,4,5-trimethoxyphenyl)prop-1-en-1-yl)-N-((tetrahydrofuran-3-yl)methyl) benzamide] |  | 16.7 | 47.2 |  | inhibited MCF-7 cell migration; also recorded: effectively inhibited the migration of MCF-7 cells in a dose-dependent manner |  |
| COc1cc(C(=O)/C=C/c2ccc(C(=O)OCCCSc3ccncc3)cc2)cc(OC)c1OC [Compound A14, 3-(pyridin-4-ylthio) propyl (E)-4-(3-oxo-3-(3,4,5-trimethoxyphenyl)prop-1-en-1-yl) benzoate] |  |  | 41.2 |  | inhibited MCF-7 cell migration; also recorded: effectively inhibited the migration of MCF-7 cells in a dose-dependent manner | significantly reduced |
